Literature values as cited in patent publication US8372434B2, “Ophthalmic oil-in-water type emulsion with stable positive zeta potential” (Novagali Pharma SA, priority 2004, dated 2013).

Settings: at 0.1% or 0.3% w/v

Structure (SMILES)	safety for ocular administration
CCCCCCCC/C=C\CCCCCCCCN [oleylamine]	safe for ocular administration
CCCCCCCCCCCCCCCCCCN [stearylamine]	safe for ocular administration
